One test has as its target T1, NS3 genotype 3a protease (UniProt Q81258).
T1 construct: Purified NS3 protease domain (amino acids 1-181) of the genotype 1b and 3a virus were generated as above; fused on or other part: N-terminal hexahistidine tag with an rTEV protease cleavage site (vector p28-N6H-Tev-NS3(181)3)
T1 sequence (Q81258 1033-1663): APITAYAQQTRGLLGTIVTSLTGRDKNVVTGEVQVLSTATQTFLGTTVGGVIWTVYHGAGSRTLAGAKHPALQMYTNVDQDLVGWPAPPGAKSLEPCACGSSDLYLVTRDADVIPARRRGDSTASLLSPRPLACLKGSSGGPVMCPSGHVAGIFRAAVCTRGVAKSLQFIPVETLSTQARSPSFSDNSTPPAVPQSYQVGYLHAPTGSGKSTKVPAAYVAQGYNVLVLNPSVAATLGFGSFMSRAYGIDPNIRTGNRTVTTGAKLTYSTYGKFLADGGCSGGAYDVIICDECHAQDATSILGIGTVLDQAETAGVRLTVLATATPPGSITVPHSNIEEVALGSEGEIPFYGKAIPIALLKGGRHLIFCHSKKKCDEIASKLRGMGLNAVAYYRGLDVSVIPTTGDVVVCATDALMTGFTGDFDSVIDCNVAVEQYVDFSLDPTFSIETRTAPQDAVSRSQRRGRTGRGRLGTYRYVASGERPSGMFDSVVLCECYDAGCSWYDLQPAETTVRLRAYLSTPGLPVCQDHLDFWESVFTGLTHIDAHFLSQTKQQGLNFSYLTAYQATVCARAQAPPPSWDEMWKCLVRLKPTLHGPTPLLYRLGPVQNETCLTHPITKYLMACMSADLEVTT
The test is described as follows: Ki determination, NS3 protease genotype 3a (fluorogenic depsipeptide substrate). Type of test: biochemical, hepatitis C virus. The settings on record: NS3 protease domain genotype 3a, NS4A peptide. The gist of the method: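 NS3 protease domain (aa 1-181), 50 pM (1b) or 200 pM (3a), with 20 μM NS4A peptide, pre-incubated 1 h with inhibitor (100 nM–5 pM); 4 μM (1b) or 2 μM (3a) FRET depsipeptide substrate, room temperature, pH-unspecified HEPES buffer with 40% glycerol, 10% DMSO. Steady-state rates at 90–120 min (ex 340/em 490); Morrison fit gave Ki^app, corrected to Ki via substrate/Km.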

For test [1], the system named is genotype 2a stable HCV replicon (JFH-1) in Huh-7-derived cells. The test is described as follows: Stable subgenomic HCV replicon, genotype 2a, Renilla luciferase. Type of test: cell-based. The note with it: Hepatitis C virus, stable replicon genotype 2a, 72 h, read-out: EC50 2A RLUC.
Test [2] deals with genotype 1a (H77) wild-type transient HCV replicon in Huh-7-derived cells. Briefly: Transient-transfected HCV replicon, genotype 1a wild type. Type of test: cell-based. The note with it: Hepatitis C virus; transient-transfected replicon genotype 1a wild type, 72 h; read-out: EC50 1A WT.
Test [3] concerns NS3/4a protease inhibitor resistant variant D168A in genotype 1b transient HCV replicon. The test is described as follows: Transient-transfected HCV replicon, genotype 1b D168A. The test is classed as cell-based. The settings on record: Hepatitis C virus, 72 h, read-out: EC50 1B D168A.

Compound `CC(C)(C)[C@@H]1NC(=O)O[C@@H]2C[C@@H]3C[C@@H]3[C@H]2CC/C=C/C(F)(F)c2nc3ccc(C#N)cc3nc2O[C@@H]2C[C@@H](C(=O)N[C@]3(C(=O)NS(=O)(=O)C4(C)CC4)C[C@H]3C(F)F)N(C2)C1=O` [Example 13, (1aS,2aR,6S,9S,11R,20E,23aR,23bS)-6-tert-butyl-15-cyano-N-[(1R,2R)-2-(difluoromethyl)-1-{[(1-methylcyclopropyl)sulfonyl]carbamoyl}cyclopropyl]-19,19-difluoro-4,7-dioxo-1a,2,2a,4,5,6,7,10,11,19,22,23,23a,23b-tetradecahydro-1H,9H-8,11-methanocyclopropa[4′,5′]cyclopenta[1′,2′18,19][1,10,3,6]dioxadiazacyclononadecino[11,12-b]quinoxaline-9-carboxamide] showed a Ki on NS3 genotype 3a protease of 0.03 nM. Also, the EC50 in test [1] was found to be 1.4 nM; in test [2] it was 2.8 nM; in test [3], 1.1 nM.

In turn, `CC(C)(C)[C@@H]1NC(=O)O[C@@H]2C[C@@H]3C[C@@H]3[C@H]2CCCCC(F)(F)c2nc3ccc(C#N)cc3nc2O[C@@H]2C[C@@H](C(=O)N[C@]3(C(=O)NS(=O)(=O)C4(C)CC4)C[C@H]3C(F)F)N(C2)C1=O` [Example 14, (1aS,2aR,6S,9S,11R,23aR,23bS)-6-tert-butyl-15-cyano-N-[(1R,2R)-2-(difluoromethyl)-1-{[(1-methylcyclopropyl)sulfonyl]carbamoyl}cyclopropyl]-19,19-difluoro-4,7-dioxo-1a,2,2a,4,5,6,7,10,11,19,20,21,22,23,23a,23b-hexadecahydro-1H,9H-8,11-methanocyclopropa[4′,5′]cyclopenta [1′,2′:18,19][1,10,3,6]dioxadiazacyclononadecino[11,12-b]quinoxaline-9-carboxamide] had a Ki on NS3 genotype 3a protease of 0.01 nM. Further, the EC50 in test [1] was determined as 1.4 nM; in test [2], 0.9 nM; in test [3], 0.65 nM.

As to `CC(C)(C)[C@@H]1NC(=O)O[C@@H]2C[C@@H]3C[C@@H]3[C@H]2CCCCC(F)(F)c2nc3ccc(OC(F)F)cc3nc2O[C@@H]2C[C@@H](C(=O)N[C@]3(C(=O)NS(=O)(=O)C4CC4)C[C@H]3C(F)F)N(C2)C1=O` [Example 16, (1aS,2aR,6S,9S,11R,23aR,23bS)-6-tert-butyl-N-[(1R,2R)-1-[(cyclopropylsulfonyl)carbamoyl]-2-(difluoromethyl)cyclopropyl]-15-(difluoromethoxy)-19,19-difluoro-4,7-dioxo-1a,2,2a,4,5,6,7,10,11,19,20,21,22,23,23a,23b-hexadecahydro-1H,9H-8,11-methanocyclopropa[4′,5′]cyclopenta [1′,2′:18,19][1,10,3,6]dioxadiazacyclononadecino[11,12-b]quinoxaline-9-carboxamide], the Ki at NS3 genotype 3a protease amounted to 0.13 nM. For the same compound, the EC50 in test [1] amounted to 2.3 nM; in test [2], 1.8 nM; in test [3] it was 7.9 nM.

`CC(C)(C)[C@@H]1NC(=O)O[C@@H]2C[C@@H]3C[C@@H]3[C@H]2CCCCC(F)(F)c2nc3ccccc3nc2O[C@@H]2C[C@@H](C(=O)N[C@]3(C(=O)NS(=O)(=O)C4(C)CC4)C[C@H]3C(F)F)N(C2)C1=O` [Example 17]: on NS3 genotype 3a protease, the Ki was 0.02 nM. In addition, the EC50 in test [1] stood at 2.7 nM; in test [2], 3.3 nM; in test [3], 2.7 nM.

Take `CC(C)(C)[C@@H]1NC(=O)O[C@@H]2C[C@@H]3C[C@@H]3[C@H]2CCCCC(F)(F)c2nc3ccccc3nc2O[C@@H]2C[C@@H](C(=O)N[C@]3(C(=O)NS(=O)(=O)C4CC4)C[C@H]3C(F)F)N(C2)C1=O` [Example 18]: the Ki on NS3 genotype 3a protease came out at 0.02 nM. The EC50 in test [1] was determined as 2.6 nM; in test [2], 3.6 nM; in test [3], 2.6 nM.

At NS3 genotype 3a protease, `CC(C)(C)[C@@H]1NC(=O)O[C@@H]2C[C@@H]3C[C@@H]3[C@H]2CCCCCc2nc3ccc(Cl)cc3nc2O[C@@H]2C[C@@H](C(=O)N[C@]3(C(=O)NS(=O)(=O)C4CC4)C[C@H]3C(F)F)N(C2)C1=O` [Example 19, (1aS,2aR,6S,9S,11R,23aR,23bS)-6-tert-butyl-15-chloro-N-[(1R,2R)-1-[(cyclopropylsulfonyl)carbamoyl]-2-(difluoromethyl)cyclopropyl]-4,7-dioxo-1a,2,2a,4,5,6,7,10,11,19,20,21,22,23,23a, 23b-hexadecahydro-1H,9H-8,11-methanocyclopropa[4′,5′]cyclopenta[1′,2′:18,19][1,10,3,6]dioxadiazacyclononadecino[11,12-b]quinoxaline-9-carboxamide] came in with a Ki of 0.06 nM. Also, the EC50 amounted to 3.1 nM in test [1], 1.3 nM in test [2] and 16 nM in test [3].

On to `COc1ccc2nc3c(nc2c1)O[C@@H]1C[C@@H](C(=O)N[C@]2(C(=O)NS(=O)(=O)C4(C)CC4)C[C@H]2CC(F)F)N(C1)C(=O)[C@H](C(C)(C)C)NC(=O)O[C@@H]1C[C@@H]2C[C@@H]2[C@H]1CCCCC3(F)F` [Example 20, (1aS,2aR,6S,9S,11R,23aR,23bS)-6-tert-butyl-N-[(1R,2S)-2-(2,2-difluoroethyl)-1-{[(1-methylcyclopropyl)sulfonyl]carbamoyl}cyclopropyl]-19,19-difluoro-15-methoxy-4,7-dioxo-1a,2,2a,4,5,6,7,10,11,19,20,21,22,23,23a,23b-hexadecahydro-1H,9H-8,11-methanocyclopropa[4′,5′]cyclopenta[1′,2′:18,19][1,10,3,6]dioxadiazacyclononadecino[11,12-b]quinoxaline-9-carboxamide], for which affinity at NS3 genotype 3a protease was put at a Ki of 0.07 nM. For the same compound, the EC50 in test [1] was 5 nM; in test [2] it was 5.2 nM; in test [3], 6.3 nM.

Turning to `COc1ccc2cc3c(nc2c1)O[C@@H]1C[C@@H](C(=O)N[C@]2(C(=O)NS(=O)(=O)C4CC4)C[C@H]2C(F)F)N(C1)C(=O)[C@H](C(C)(C)C)NC(=O)O[C@@H]1C[C@@H]2C[C@@H]2[C@H]1CCCCC3` [Example 21, (1aS,2aR,6S,9S,11R,23aR,23bS)-6-tert-butyl-N-[(1R,2R)-1-[(cyclopropylsulfonyl)carbamoyl]-2-(difluoromethyl)cyclopropyl]-15-methoxy-4,7-dioxo-1a,2,2a,4,5,6,7,10,11,19,20,21,22,23,23a,23b-hexadecahydro-1H,9H-8,11-methanocyclopropa[4′,5′]cyclopenta[1′,2′:18,19][1,10,3,6]dioxadiazacyclononadecino[11,12-b]quinoline-9-carboxamide], the affinity on NS3 genotype 3a protease corresponds to a Ki of 0.1 nM. For the same compound, the EC50 in test [1] is 3.5 nM; in test [2], 1.5 nM; in test [3] it was 22 nM.
